Drawing on PubChem BioAssay (NCI), this text covers GI50 and TGI for 7 compounds.

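In this assay, cells in 96-well plates receive the compound at five concentrations for 48 hours. Endpoints are linearly interpolated between the surrounding concentrations. At the GI50, growth is halved. At the TGI there is no net growth.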

Test systems include OVCAR-3 ovarian; 786-0 renal; NCI-H226 lung; RXF 393 renal; SN12C renal; MDA-MB-231 breast; SK-MEL-2 melanoma; SK-MEL-5 melanoma; SF-539 CNS; HCT-15 colon.
What all share (assay): NCI anticancer screen, dose series, 48 h

In the case of `Nc1ccc(C#Cc2cncnc2Nc2ccc(OCc3cccc(F)c3)c(Cl)c2)cc1`, the GI50 in the experiment on OVCAR-3 ovarian was 8.87 µM; in the experiment on 786-0 renal it was 17.4 µM; in the experiment on NCI-H226 lung it was 10.6 µM; in the experiment on RXF 393 renal, 5 µM; in the experiment on SN12C renal, over 15.6 µM; in the experiment on MDA-MB-231 breast it was 8.08 µM. Also, the GI50 is over 16.4 µM in the experiment with SK-MEL-2 melanoma, over 15.8 µM in the experiment on SK-MEL-5 melanoma, over 15.8 µM with SF-539 CNS and 7.32 µM with HCT-15 colon. The TGI in the experiment with OVCAR-3 ovarian, with 786-0 renal, in the experiment with NCI-H226 lung, with RXF 393 renal, in the experiment on SN12C renal and in the experiment with MDA-MB-231 breast was over 25 µM throughout. In addition, the TGI in the experiment on SK-MEL-2 melanoma, in the experiment with SK-MEL-5 melanoma, with SF-539 CNS and with HCT-15 colon was over 25 µM throughout.
Turning to `NC(=O)c1[nH]nc(C2OC(CO)C(O)C2O)c1O` (stereo not given), the TGI in the experiment with OVCAR-3 ovarian is 424 µM; in the experiment with 786-0 renal, over 2870 µM; in the experiment on NCI-H226 lung it was 2220 µM; with RXF 393 renal, 551 µM; with SN12C renal, 819 µM; in the experiment with MDA-MB-231 breast it was 670 µM. For the same compound, the TGI in the experiment on SK-MEL-2 melanoma is 843 µM; in the experiment on SK-MEL-5 melanoma, 4090 µM; in the experiment on SF-539 CNS it was 505 µM; in the experiment on HCT-15 colon, 838 µM.
Regarding `COc1cc2cc(Oc3ccc(NC(=O)Nc4ccccc4)cc3)c(C)nc2cc1OCCN1CCCCC1`, the GI50 was 6.31 µM with OVCAR-3 ovarian; 5.58 µM with 786-0 renal; 5.82 µM with NCI-H226 lung; 4.42 µM in the experiment on RXF 393 renal; 5.15 µM in the experiment with SN12C renal; 6.39 µM with MDA-MB-231 breast. Besides, the GI50 was 5.96 µM with SK-MEL-2 melanoma, 5.47 µM with SK-MEL-5 melanoma, 5.46 µM in the experiment on SF-539 CNS and 4.18 µM with HCT-15 colon. Also, the TGI in the experiment with OVCAR-3 ovarian was 13.3 µM; in the experiment with 786-0 renal it was 11.1 µM; in the experiment on NCI-H226 lung it was 12 µM; in the experiment on RXF 393 renal it was 8.99 µM; in the experiment with SN12C renal, 10.2 µM; in the experiment on MDA-MB-231 breast, 12.1 µM. Further, the TGI in the experiment on SK-MEL-2 melanoma turned out to be 12.1 µM; in the experiment on SK-MEL-5 melanoma, 10.1 µM; with SF-539 CNS, 10.3 µM; in the experiment with HCT-15 colon, 9.14 µM.
Turning to `O=S(=O)(NC(=S)Nc1ccccc1)c1ccc(N2N=C3c4ccccc4CC3C2c2cccs2)cc1` (stereo not given), the GI50 in the experiment on OVCAR-3 ovarian is 17.2 µM; in the experiment with 786-0 renal, 19.7 µM; with NCI-H226 lung it was 27.2 µM; in the experiment on RXF 393 renal it was 78.1 µM; with SN12C renal, 21.4 µM; in the experiment with MDA-MB-231 breast, 24.8 µM. Also, the GI50 was 59.9 µM in the experiment on SK-MEL-2 melanoma, 20.8 µM with SK-MEL-5 melanoma, 22.7 µM in the experiment on SF-539 CNS and 22.6 µM in the experiment with HCT-15 colon. The TGI is 46.9 µM in the experiment with OVCAR-3 ovarian; 40.4 µM in the experiment with 786-0 renal; 55.4 µM with NCI-H226 lung; over 100 µM in the experiment with RXF 393 renal; 43.2 µM in the experiment with SN12C renal; 62.3 µM with MDA-MB-231 breast. Further, the TGI was over 100 µM in the experiment with SK-MEL-2 melanoma, 44.7 µM in the experiment with SK-MEL-5 melanoma, 46.3 µM with SF-539 CNS and 63.5 µM in the experiment on HCT-15 colon.
For `CCc1cccc(CC)c1NC(=S)NC(=O)c1ccc(Br)cc1`, the TGI is over 100 µM with OVCAR-3 ovarian; over 100 µM in the experiment on 786-0 renal; over 95.5 µM with NCI-H226 lung; over 78 µM with RXF 393 renal; over 81.4 µM in the experiment with SN12C renal; over 100 µM in the experiment with MDA-MB-231 breast. The TGI is 48.9 µM in the experiment with SK-MEL-2 melanoma, over 71.6 µM in the experiment with SK-MEL-5 melanoma, over 100 µM in the experiment on SF-539 CNS and over 78.4 µM with HCT-15 colon.
Turning to `COc1ccc(C2NCCc3c2[nH]c2ccccc32)cc1CN1CCN(c2ccc(F)cc2)CC1` (stereo not given), the GI50 was 2.1 µM in the experiment on OVCAR-3 ovarian; 1.71 µM with 786-0 renal; 13 µM with NCI-H226 lung; 1.37 µM in the experiment with RXF 393 renal; 3.47 µM in the experiment with SN12C renal; 1.4 µM with MDA-MB-231 breast. Also, the GI50 is 2.14 µM with SK-MEL-2 melanoma, 1.63 µM in the experiment on SK-MEL-5 melanoma, 1.88 µM in the experiment on SF-539 CNS and 1.61 µM in the experiment on HCT-15 colon. In addition, the TGI in the experiment on OVCAR-3 ovarian amounted to 4.52 µM; in the experiment with 786-0 renal, 3.17 µM; in the experiment on NCI-H226 lung, 35.1 µM; in the experiment on RXF 393 renal it was 2.94 µM; with SN12C renal it was 15.5 µM; in the experiment with MDA-MB-231 breast, 3.36 µM. Further, the TGI in the experiment on SK-MEL-2 melanoma worked out at 3.93 µM; with SK-MEL-5 melanoma, 3.01 µM; with SF-539 CNS, 3.42 µM; in the experiment with HCT-15 colon it was 3.06 µM.
As for `Nc1nc2ccc([C@@H]3Nc4ccc5[nH]ncc5c4[C@H]4[C@H]5CCC(C5)[C@H]43)cc2s1`, the GI50 in the experiment on OVCAR-3 ovarian was 0.366 µM; in the experiment with 786-0 renal, 1.4 µM; with NCI-H226 lung, 1.91 µM; in the experiment on RXF 393 renal, 1.47 µM; with SN12C renal, 1.53 µM; with MDA-MB-231 breast, 1.29 µM. Moreover, the GI50 in the experiment on SK-MEL-2 melanoma is 1.82 µM; with SK-MEL-5 melanoma, 1.66 µM; in the experiment with SF-539 CNS, 0.812 µM; in the experiment with HCT-15 colon, 0.505 µM. For the same compound, the TGI came out at 1.25 µM in the experiment with OVCAR-3 ovarian; 10 µM in the experiment on 786-0 renal; 5.54 µM in the experiment with NCI-H226 lung; 7.56 µM in the experiment on RXF 393 renal; 4.12 µM in the experiment on SN12C renal; 11.6 µM in the experiment on MDA-MB-231 breast. The TGI with SK-MEL-2 melanoma is 6.79 µM; with SK-MEL-5 melanoma, 13 µM; in the experiment with SF-539 CNS, 2.88 µM; in the experiment with HCT-15 colon, 2.64 µM.
